The values below are quoted from earlier work in paper PMC9147171, “Pharmacokinetic/Pharmacodynamic Evaluation of a New Purine-2,6-Dione Derivative in Rodents with Experimental Autoimmune Diseases” (Pharmaceutics, 2022).

By IC50 is commonly meant the midpoint of a concentration-inhibition curve.

Like-named read-outs stand apart in the source and are kept apart here.

One data set has as its target T1, hrPDE1B (Homo sapiens, UniProt Q01064).
T1 construct: purchased SignalChem, Richmond, Canada
Also on record: method as in PMID 31899535. The settings on record: PDE1B; read-out: IC50 (µM) Against PDE Isoform (CV%) PDE1B; cited from earlier work.

The next data set has as its target T2, hrPDE3A (Homo sapiens, UniProt Q14432).
T2 construct: purchased SignalChem, Richmond, Canada
Details: method as in PMID 31899535. The settings on record: PDE3A; read-out: IC50 (µM) Against PDE Isoform (CV%) PDE3A; cited from earlier work.

In the next data set the test system is PDE4B. As to conditions: read-out: IC50 (µM) Against PDE Isoform PDE4B; cited from earlier work.
The test system of a further data set is PDE7A. As to conditions: read-out: IC50 (µM) Against PDE Isoform PDE7A; cited from earlier work.
For data set [1] the following is noted: rats; from the authors' previous investigations; cited from earlier work.
For data set [2] the following is noted: mice; from the authors' previous investigations; cited from earlier work.

T2 sequence (Q14432 whole entry): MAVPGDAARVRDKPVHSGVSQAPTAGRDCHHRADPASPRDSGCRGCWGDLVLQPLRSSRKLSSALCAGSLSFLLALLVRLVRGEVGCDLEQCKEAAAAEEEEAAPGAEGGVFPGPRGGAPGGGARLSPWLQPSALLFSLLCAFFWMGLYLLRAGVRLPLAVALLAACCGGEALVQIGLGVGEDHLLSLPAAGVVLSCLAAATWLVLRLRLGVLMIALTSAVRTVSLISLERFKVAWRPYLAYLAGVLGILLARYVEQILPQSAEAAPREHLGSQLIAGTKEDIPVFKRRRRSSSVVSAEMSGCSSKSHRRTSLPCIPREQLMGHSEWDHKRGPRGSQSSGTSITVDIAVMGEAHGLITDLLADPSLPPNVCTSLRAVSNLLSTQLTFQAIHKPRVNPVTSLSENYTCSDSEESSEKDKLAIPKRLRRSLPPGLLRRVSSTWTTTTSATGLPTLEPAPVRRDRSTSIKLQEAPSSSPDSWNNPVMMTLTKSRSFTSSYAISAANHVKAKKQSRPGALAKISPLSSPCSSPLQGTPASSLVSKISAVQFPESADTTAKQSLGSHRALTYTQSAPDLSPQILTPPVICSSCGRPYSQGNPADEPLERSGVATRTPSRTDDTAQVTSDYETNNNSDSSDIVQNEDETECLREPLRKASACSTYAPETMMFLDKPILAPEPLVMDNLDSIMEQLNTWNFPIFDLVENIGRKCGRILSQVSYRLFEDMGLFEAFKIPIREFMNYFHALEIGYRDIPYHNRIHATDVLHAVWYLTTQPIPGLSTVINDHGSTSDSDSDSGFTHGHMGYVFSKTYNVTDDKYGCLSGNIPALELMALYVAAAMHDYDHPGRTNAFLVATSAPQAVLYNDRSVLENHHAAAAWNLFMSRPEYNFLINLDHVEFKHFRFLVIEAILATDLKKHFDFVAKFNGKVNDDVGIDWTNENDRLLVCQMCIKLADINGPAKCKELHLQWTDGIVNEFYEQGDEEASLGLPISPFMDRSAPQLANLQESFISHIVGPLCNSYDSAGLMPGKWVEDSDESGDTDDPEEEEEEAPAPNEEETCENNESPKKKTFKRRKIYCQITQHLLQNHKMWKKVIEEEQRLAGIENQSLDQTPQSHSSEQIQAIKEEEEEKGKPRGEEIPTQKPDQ
T1 sequence (Q01064 whole entry): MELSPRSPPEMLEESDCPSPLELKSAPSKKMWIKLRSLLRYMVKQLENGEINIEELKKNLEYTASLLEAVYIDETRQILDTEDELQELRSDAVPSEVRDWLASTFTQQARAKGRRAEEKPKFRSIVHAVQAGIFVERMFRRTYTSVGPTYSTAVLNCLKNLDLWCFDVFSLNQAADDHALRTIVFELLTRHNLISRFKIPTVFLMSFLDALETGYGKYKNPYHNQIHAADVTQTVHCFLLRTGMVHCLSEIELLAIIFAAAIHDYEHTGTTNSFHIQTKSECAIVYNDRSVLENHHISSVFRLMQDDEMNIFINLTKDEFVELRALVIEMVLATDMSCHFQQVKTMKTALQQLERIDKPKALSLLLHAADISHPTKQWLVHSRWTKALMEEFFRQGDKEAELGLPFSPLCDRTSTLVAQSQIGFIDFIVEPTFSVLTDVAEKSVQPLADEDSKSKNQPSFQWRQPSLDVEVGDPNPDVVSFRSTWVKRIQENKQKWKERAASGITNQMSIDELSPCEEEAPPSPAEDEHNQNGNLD

Regarding `Cn1c(=O)c2c(nc(NCCc3ccccc3)n2CCCC(=O)NN=Cc2ccccc2O)n(C)c1=O` [GRMS-55], the IC50 on hrPDE1B is 2.5 µM; on hrPDE3A it was 13.4 µM; in the data set on PDE4B it was 26.9 µM; in the data set with PDE7A it was 7.3 µM. Also, the half-life entry in data set [1] and in data set [2] was “around 30 min” each time.
As for `Cc1ccc([N+](=O)[O-])cc1S(=O)(=O)N(C)C` [BRL—50481], the half-inhibitory concentration (IC50) with PDE7A is 2.1 µM.
